# Results taken from PubChem BioAssay (NCI).
#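 Results reflect a 48-hour exposure of cells in 96-well plates to compound at five concentrations. GI50 = concentration required for 50% inhibition of growth. TGI: concentration producing complete growth inhibition.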
# Legend:
# Assay in all cases: growth of human tumour cells (NCI), 48 h
# 786-0 renal = test system: 786-0 renal
# A498 renal = test system: A498 renal
# A549 NSCLC = test system: A549 NSCLC
# ACHN renal = test system: ACHN renal
# BT-549 breast = test system: BT-549 breast
# CAKI-1 renal = test system: CAKI-1 renal
# CCRF-CEM leukemia = test system: CCRF-CEM leukemia
# COLO 205 colon = test system: COLO 205 colon
# DU-145 prostate = test system: DU-145 prostate
# EKVX NSCLC = test system: EKVX NSCLC
# HCC-2998 colon = test system: HCC-2998 colon
# HCT-116 colon = test system: HCT-116 colon
# HCT-15 colon = test system: HCT-15 colon
# HL-60(TB) leukemia = test system: HL-60(TB) leukemia
# HOP-62 NSCLC = test system: HOP-62 NSCLC
# HOP-92 NSCLC = test system: HOP-92 NSCLC
# HS 578T breast = test system: HS 578T breast
# HT29 colon = test system: HT29 colon
# IGROV1 ovarian = test system: IGROV1 ovarian
# K-562 leukemia = test system: K-562 leukemia
# KM12 colon = test system: KM12 colon
# LOX IMVI melanoma = test system: LOX IMVI melanoma
# M14 melanoma = test system: M14 melanoma
# MALME-3M melanoma = test system: MALME-3M melanoma
# MCF7 breast = test system: MCF7 breast
# MDA-MB-231 breast = test system: MDA-MB-231 breast
# MDA-MB-435 = test system: MDA-MB-435
# MOLT-4 leukemia = test system: MOLT-4 leukemia
# NCI-H226 lung = test system: NCI-H226 lung
# NCI-H23 lung = test system: NCI-H23 lung
# NCI-H460 lung = test system: NCI-H460 lung
# NCI-H522 lung = test system: NCI-H522 lung
# NCI/ADR-RES ovarian = test system: NCI/ADR-RES ovarian
# OVCAR-4 ovarian = test system: OVCAR-4 ovarian
# OVCAR-5 ovarian = test system: OVCAR-5 ovarian
# OVCAR-8 ovarian = test system: OVCAR-8 ovarian
# PC-3 prostate = test system: PC-3 prostate
# RPMI-8226 leukemia = test system: RPMI-8226 leukemia
# RXF 393 renal = test system: RXF 393 renal
# SF-268 CNS = test system: SF-268 CNS
# SF-295 CNS = test system: SF-295 CNS
# SF-539 CNS = test system: SF-539 CNS
# SK-MEL-2 melanoma = test system: SK-MEL-2 melanoma
# SK-MEL-28 melanoma = test system: SK-MEL-28 melanoma
# SK-MEL-5 melanoma = test system: SK-MEL-5 melanoma
# SK-OV-3 ovarian = test system: SK-OV-3 ovarian
# SN12C renal = test system: SN12C renal
# SNB-19 CNS = test system: SNB-19 CNS
# SNB-75 CNS = test system: SNB-75 CNS
# SR leukemia = test system: SR leukemia
# SW-620 colon = test system: SW-620 colon
# T-47D breast = test system: T-47D breast
# TK-10 renal = test system: TK-10 renal
# U251 CNS = test system: U251 CNS
# UACC-257 melanoma = test system: UACC-257 melanoma
# UACC-62 melanoma = test system: UACC-62 melanoma
# UO-31 renal = test system: UO-31 renal
smiles,measurement,setting,value
O=C(NNc1nc2cc(F)ccc2n2c(CO)ccc12)c1cnccn1,GI50,786-0 renal,387 nM
same,TGI,786-0 renal,11900 nM
same,GI50,A498 renal,1160 nM
same,TGI,A498 renal,4990 nM
same,GI50,A549 NSCLC,471 nM
same,TGI,A549 NSCLC,> 55800 nM
same,GI50,ACHN renal,111 nM
same,TGI,ACHN renal,12200 nM
same,GI50,BT-549 breast,667 nM
same,GI50,CAKI-1 renal,281 nM
same,TGI,CAKI-1 renal,> 100000 nM
same,GI50,CCRF-CEM leukemia,395 nM
same,TGI,CCRF-CEM leukemia,> 60400 nM
same,GI50,COLO 205 colon,368 nM
same,TGI,COLO 205 colon,> 38500 nM
same,GI50,DU-145 prostate,780 nM
same,TGI,DU-145 prostate,> 100000 nM
same,GI50,EKVX NSCLC,408 nM
same,TGI,EKVX NSCLC,> 57200 nM
same,GI50,HCC-2998 colon,568 nM
same,TGI,HCC-2998 colon,> 100000 nM
same,GI50,HCT-116 colon,345 nM
same,TGI,HCT-116 colon,> 42900 nM
same,GI50,HCT-15 colon,69.1 nM
same,TGI,HCT-15 colon,> 45700 nM
same,GI50,HL-60(TB) leukemia,435 nM
same,TGI,HL-60(TB) leukemia,> 38000 nM
same,GI50,HOP-62 NSCLC,344 nM
same,TGI,HOP-62 NSCLC,> 32800 nM
same,GI50,HOP-92 NSCLC,1400 nM
same,TGI,HOP-92 NSCLC,63800 nM
same,GI50,HS 578T breast,4310 nM
same,TGI,HS 578T breast,> 100000 nM
same,GI50,HT29 colon,552 nM
same,TGI,HT29 colon,> 100000 nM
same,GI50,IGROV1 ovarian,509 nM
same,TGI,IGROV1 ovarian,29500 nM
same,GI50,K-562 leukemia,508 nM
same,TGI,K-562 leukemia,> 100000 nM
same,GI50,KM12 colon,432 nM
same,TGI,KM12 colon,> 100000 nM
same,GI50,LOX IMVI melanoma,317 nM
same,TGI,LOX IMVI melanoma,4080 nM
same,GI50,M14 melanoma,292 nM
same,TGI,M14 melanoma,4050 nM
same,GI50,MALME-3M melanoma,1070 nM
same,TGI,MALME-3M melanoma,20200 nM
same,GI50,MCF7 breast,541 nM
same,TGI,MCF7 breast,36000 nM
same,GI50,MDA-MB-231 breast,633 nM
same,TGI,MDA-MB-231 breast,> 100000 nM
same,GI50,MDA-MB-435,712 nM
same,TGI,MDA-MB-435,> 100000 nM
same,GI50,MOLT-4 leukemia,407 nM
same,TGI,MOLT-4 leukemia,> 100000 nM
same,GI50,NCI-H226 lung,367 nM
same,TGI,NCI-H226 lung,10800 nM
same,GI50,NCI-H23 lung,895 nM
same,TGI,NCI-H23 lung,> 100000 nM
same,GI50,NCI-H460 lung,245 nM
same,TGI,NCI-H460 lung,11000 nM
same,GI50,NCI-H522 lung,1010 nM
same,TGI,NCI-H522 lung,8070 nM
same,GI50,NCI/ADR-RES ovarian,243 nM
same,TGI,NCI/ADR-RES ovarian,> 24900 nM
same,GI50,OVCAR-4 ovarian,534 nM
same,TGI,OVCAR-4 ovarian,> 83100 nM
same,GI50,OVCAR-5 ovarian,1360 nM
same,TGI,OVCAR-5 ovarian,> 100000 nM
same,GI50,OVCAR-8 ovarian,343 nM
same,TGI,OVCAR-8 ovarian,> 31900 nM
same,GI50,PC-3 prostate,780 nM
same,TGI,PC-3 prostate,> 100000 nM
same,GI50,RPMI-8226 leukemia,721 nM
same,TGI,RPMI-8226 leukemia,> 57600 nM
same,GI50,RXF 393 renal,557 nM
same,TGI,RXF 393 renal,10000 nM
same,GI50,SF-268 CNS,516 nM
same,TGI,SF-268 CNS,> 100000 nM
same,GI50,SF-295 CNS,295 nM
same,TGI,SF-295 CNS,> 100000 nM
same,GI50,SF-539 CNS,489 nM
same,TGI,SF-539 CNS,> 100000 nM
same,GI50,SK-MEL-2 melanoma,1900 nM
same,TGI,SK-MEL-2 melanoma,56400 nM
same,GI50,SK-MEL-28 melanoma,595 nM
same,TGI,SK-MEL-28 melanoma,> 100000 nM
same,GI50,SK-MEL-5 melanoma,481 nM
same,TGI,SK-MEL-5 melanoma,3610 nM
same,GI50,SK-OV-3 ovarian,543 nM
same,TGI,SK-OV-3 ovarian,18200 nM
same,GI50,SN12C renal,704 nM
same,TGI,SN12C renal,> 100000 nM
same,GI50,SNB-19 CNS,665 nM
same,TGI,SNB-19 CNS,> 100000 nM
same,GI50,SNB-75 CNS,986 nM
same,TGI,SNB-75 CNS,27300 nM
same,GI50,SR leukemia,448 nM
same,TGI,SR leukemia,> 100000 nM
same,GI50,SW-620 colon,649 nM
same,TGI,SW-620 colon,> 100000 nM
same,GI50,T-47D breast,837 nM
same,TGI,T-47D breast,> 52600 nM
same,GI50,TK-10 renal,504 nM
same,TGI,TK-10 renal,> 100000 nM
same,GI50,U251 CNS,390 nM
same,TGI,U251 CNS,> 100000 nM
same,GI50,UACC-257 melanoma,1160 nM
same,TGI,UACC-257 melanoma,6050 nM
same,GI50,UACC-62 melanoma,481 nM
same,TGI,UACC-62 melanoma,11200 nM
same,GI50,UO-31 renal,68.9 nM
same,TGI,UO-31 renal,5050 nM
